From patent publication USRE47689E1, “Compounds for treating spinal muscular atrophy” (PTC Therapeutics, Inc., priority 2011, dated 2019)

Columns and labels:
[1] = tested on: SMN2 minigene (full length SMN2 minigene mRNA containing SMN2 exon 7); assay: SMN2 minigene mRNA splicing RT-qPCR assay in cultured cells; assay type: cell-based, human; details: Homo sapiens, HEK293-H; HEK293H cells stably transfected with SMN2-A minigene; 24 hours; 7-point concentration curve; 1.5-fold relative to vehicle-treated cells; read-out: EC1.5x for production of full length SMN2 mRNA
In short: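 HEK293H cells stably carrying the SMN2-A minigene treated 24 h at 37° C with compound (DMSO, 200× stock), then lysed. Multiplex RT-qPCR (SMN primers 0.4 μM final; 40 cycles) measures full-length exon 7-containing minigene mRNA, normalized to GAPDH and to vehicle; EC1.5x derived and binned by stars.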

Smn protein = Smn protein assay in cultured cells (SMN HTRF); assay type: cell-based, human; details: 48 hours; for EC1.5x (concentration giving 1.5-fold Smn protein increase): SMA Type 1 patient fibroblast cells (GM03813), 7-point concentration curve, SMN HTRF, concentration producing 1.5 times Smn protein vs DMSO vehicle control, read-out: EC1.5x for Smn protein expression; for maximum fold (Fold) increase of Smn protein: SMA patient fibroblast cells, 7-point concentration data, fold increase relative to vehicle control (SMN HTRF)
In short: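 Lysates in RIPA with protease inhibitors are incubated overnight at room temperature with HTRF anti-SMN antibodies. EC1.5x is derived from fold increase in ΔF over vehicle.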

Row | Compound | EC (1.5-fold) [1] [µM] | EC1.5x (concentration giving 1.5-fold Smn protein increase) (Smn protein) [nM] | maximum fold (Fold) increase of Smn protein (Smn protein) | melting point [°C]
1 | Cc1cc(F)c2nc(-c3cc4ccc(N5CCN(C)CC5)cc4oc3=O)cn2c1 [Compound 353, 3-(8-fluoro-6-methylimidazo[1,2-a]pyridin-2-yl)-7-(4-methylpiperazin-1-yl)-2H-chromen-2-one] | < 0.1 | 1000 to 3000 | **** (fold increase between >1.5 and ≤1.65) | 252 to 262
2 | CCC1CN(c2ccc3cc(-c4cn5cc(C)nc(C)c5n4)c(=O)oc3c2)CCN1C (stereo not shown) [Compound 676, 3-(6,8-dimethylimidazo[1,2-a]pyrazin-2-yl)-7-(3-ethyl-4-methylpiperazin-1-yl)-2H-chromen-2-one] | < 0.1 | < 300 | ***** (fold increase >1.65) | 258 to 262
3 | COc1cc(-c2cc3ccc(N4CCN[C@@H](C)C4)cc3oc2=O)ccc1C [Compound 575, 3-(3-methoxy-4-methylphenyl)-7-[(3S)-3-methylpiperazin-1-yl]-2H-chromen-2-one] | 0.3 to 1 | – | * (maximum fold increase of ≤1.2) | 166 to 170
4 | Cc1cn2cc(-c3cc4ccc(N5C[C@@H]6CCN(C)[C@@H]6C5)cc4oc3=O)nc2c(C)n1 [Compound 706, 3-(6,8-dimethylimidazo[1,2-a]pyrazin-2-yl)-7-[(3aS,6aS)-1-methylhexahydropyrrolo[3,4-b]pyrrol-5(1H)-yl]-2H-chromen-2-one] | < 0.1 | 300 to 1000 | **** (fold increase between >1.5 and ≤1.65) | 252 to 262
5 | Cc1ccn2nc(-c3cc4ccc(N5C[C@@H](C)N[C@@H](C)C5)cc4oc3=O)cc2c1 [Compound 304, 7-[(3R,5S)-3,5-dimethylpiperazin-1-yl]-3-(5-methylpyrazolo[1,5-a]pyridin-2-yl)-2H-chromen-2-one] | 0.1 to 0.3 | 1000 to 3000 | *** (fold increase between >1.35 and ≤1.5) | 200 to 202
6 | Cc1nc(Cl)cn2cc(-c3cc4ccc(N5CCCN(C)CC5)cc4oc3=O)nc12 [Cpd 712, 3-(6-chloro-8-methylimidazo[1,2-a]pyrazin-2-yl)-7-(4-methyl-1,4-diazepan-1-yl)-2H-chromen-2-one] | < 0.1 | – | ** (fold increase between >1.2 and ≤1.35) | 212 to 218
7 | O=c1oc2cc(N3CCNCC3)ccc2cc1-c1cccc(OC2CCC2)n1 [Compound 414, 3-[6-(cyclobutyloxy)pyridin-2-yl]-7-(piperazin-1-yl)-2H-chromen-2-one] | 3 to 30 | – | * (maximum fold increase of ≤1.2) | 166 to 168
8 | CCNCCCc1ccc2cc(-c3cn4cc(C)nc(C)c4n3)c(=O)oc2c1 [Compound 926, 3-(6,8-dimethylimidazo[1,2-a]pyrazin-2-yl)-7-[3-(ethylamino)propyl]-2H-chromen-2-one] | < 0.1 | < 300 | **** (fold increase between >1.5 and ≤1.65) | 184 to 186
9 | C[C@@H]1CN(c2ccc3cc(-c4nc5ccccc5o4)c(=O)oc3c2)C[C@H](C)N1 [Compound 23, 3-(1,3-benzoxazol-2-yl)-7-[(3R,5S)-3,5-dimethylpiperazin-1-yl]-2H-chromen-2-one] | 1 to 3 | – | * (maximum fold increase of ≤1.2) | 230 to 232
10 | Cc1cc(F)c2nc(-c3cc4ccc(N[C@H]5CCNC5)cc4oc3=O)cn2c1 [Compound 582, 3-(8-fluoro-6-methylimidazo[1,2-a]pyridin-2-yl)-7-[(3S)-pyrrolidin-3-ylamino]-2H-chromen-2-one] | 0.3 to 1 | – | ** (fold increase between >1.2 and ≤1.35) | 230 to 240
11 | CC(C)NCc1ccc2cc(-c3nc4c(Cl)cccc4s3)c(=O)oc2c1 [Compound 10, 3-(4-chloro-1,3-benzothiazol-2-yl)-7-[(propan-2-ylamino)methyl]-2H-chromen-2-one] | 0.3 to 1 | – | * (maximum fold increase of ≤1.2) | 157 to 161
12 | CC(=O)O.Cc1cn2cc(-c3cc4ccc(N5CCN(C)[C@H](C)C5)cc4oc3=O)nc2c(O)n1 [Compound 760, 7-[(3R)-3,4-dimethylpiperazin-1-yl]-3-(8-hydroxy-6-methylimidazo[1,2-a]pyrazin-2-yl)-2H-chromen-2-one acetate] | 0.1 to 0.3 | – | *** (fold increase between >1.35 and ≤1.5) | 304 to 306
13 | Cc1cn2cc(-c3cc4ccc(N5CCN(CC(C)(C)O)CC5)cc4oc3=O)nc2c(C)n1 [Compound 962, 3-(6,8-dimethylimidazo[1,2-a]pyrazin-2-yl)-7-[4-(2-hydroxy-2-methylpropyl)piperazin-1-yl]-2H-chromen-2-one] | < 0.1 | < 300 | ***** (fold increase >1.65) | 212 to 214
14 | CN1CCN(c2ccc3cc(-c4cn5cc(C6CC6)cc(F)c5n4)c(=O)oc3c2)CC1 [Compound 504, 3-(6-cyclopropyl-8-fluoroimidazo[1,2-a]pyridin-2-yl)-7-(4-methylpiperazin-1-yl)-2H-chromen-2-one] | 1 to 3 | – | * (maximum fold increase of ≤1.2) | 277 to 287
15 | Cc1cn2cc(-c3cc4ccc(CCCNCc5ccccc5)cc4oc3=O)nc2c(C)n1 [Cpd 933, 7-[3-(benzylamino)propyl]-3-(6,8-dimethylimidazo[1,2-a]pyrazin-2-yl)-2H-chromen-2-one] | < 0.1 | – | * (maximum fold increase of ≤1.2) | 143 to 147
16 | Cc1nc2ccc(-c3cc4ccc(N5CCCNCC5)cc4oc3=O)cc2s1 [Compound 771, 7-(1,4-diazepan-1-yl)-3-(2-methyl-1,3-benzothiazol-6-yl)-2H-chromen-2-one] | 1 to 3 | – | * (maximum fold increase of ≤1.2) | 228 to 230
17 | Cl.O=c1oc2cc(N3CCCNCC3)ccc2cc1-c1cn2cccnc2n1 [Compound 186, 7-(1,4-diazepan-1-yl)-3-(imidazo[1,2-a]pyrimidin-2-yl)-2H-chromen-2-one hydrochloride] | 0.1 to 0.3 | 1000 to 3000 | *** (fold increase between >1.35 and ≤1.5) | > 300
18 | CN1CCN(c2ccc3cc(-c4cn5cc(F)ccc5n4)c(=O)oc3c2)CC1 [Compound 138, 3-(6-fluoroimidazo[1,2-a]pyridin-2-yl)-7-(4-methylpiperazin-1-yl)-2H-chromen-2-one] | 1 to 3 | – | ** (fold increase between >1.2 and ≤1.35) | 266 to 269
